Columns and labels:
Assay in all cases: relative viability (nuclei count vs DMSO), 5 days (fraction); higher = more cells survive
[1] = system: HCC-366
In short: (§1)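 Lung cancer cell lines were seeded in 1536-well plates and dosed by pin tool the next day, with either a single drug or a fixed anchor-drug dose combined with five library-drug doses (not always all listed) spaced in √10 steps. Five days later, one step fixed the cells and stained their nuclei (final 0.05% Triton X-100, 1% formaldehyde, 1 ug/ml Hoechst), and nuclei were counted on 4× images. Relative viability is the nuclei count in treated wells divided by the count in vehicle wells, and each value is the median of duplicate plates.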

[2] = system: HCC-44
In short: as §1

[3] = system: NCI-H1623
In short: as §1

[4] = system: NCI-H522
In short: as §1

[5] = system: NCI-H1437
In short: as §1

[6] = system: NCI-H1648
In short: as §1

What does the source list for CC1(C)CCC(c2ccc(Cl)cc2)=C(CN2CCN(c3ccc(C(=O)NS(=O)(=O)c4ccc(N[C@H](CCN5CCOCC5)CSc5ccccc5)c(S(=O)(=O)C(F)(F)F)c4)cc3)CC2)C1 [Navitoclax] + COc1cccc2cc(-c3nc([C@H]4CC[C@H](C(=O)O)CC4)n4ncnc(N)c34)[nH]c12 [OSI-027] (partner 0.5 µM)?
relative viability ([1]; first compound 0.005 µM): 0.912; relative viability ([1]; first compound 0.01581 µM): 0.941; relative viability ([1]; first compound 0.1581 µM): 0.972; relative viability ([1]; first compound 0.5 µM): 0.978; relative viability ([2]; first compound 0.05 µM): 0.627; relative viability ([2]; first compound 0.5 µM): 0.404; relative viability ([3]; first compound 0.005 µM): 0.419; relative viability ([3]; first compound 0.01581 µM): 0.376; relative viability ([3]; first compound 0.05 µM): 0.369; relative viability ([3]; first compound 0.1581 µM): 0.439; relative viability ([3]; first compound 0.5 µM): 0.373; relative viability ([4]; first compound 0.005 µM): 0.605; relative viability ([4]; first compound 0.01581 µM): 0.705; relative viability ([4]; first compound 0.05 µM): 0.702; relative viability ([4]; first compound 0.1581 µM): 0.685; relative viability ([4]; first compound 0.5 µM): 0.747; relative viability ([5]; first compound 0.005 µM): 0.845; relative viability ([5]; first compound 0.01581 µM): 0.974; relative viability ([5]; first compound 0.05 µM): 0.932; relative viability ([5]; first compound 0.1581 µM): 0.856; relative viability ([5]; first compound 0.5 µM): 0.83; relative viability ([6]; first compound 0.005 µM): 0.257; relative viability ([6]; first compound 0.01581 µM): 0.256; relative viability ([6]; first compound 0.1581 µM): 0.253; relative viability ([6]; first compound 0.5 µM): 0.306

CC1(C)CCC(c2ccc(Cl)cc2)=C(CN2CCN(c3ccc(C(=O)NS(=O)(=O)c4ccc(N[C@H](CCN5CCOCC5)CSc5ccccc5)c(S(=O)(=O)C(F)(F)F)c4)cc3)CC2)C1 [Navitoclax] + Cc1cc(Nc2cc(N3CCN(C)CC3)nc(Sc3ccc(NC(=O)C4CC4)cc3)n2)n[nH]1 [Tozasertib] (partner 0.1 µM) was tested. Which relative viability ([1]; first compound 0.005 µM) did it give?
The relative viability was 0.109.

And the relative viability ([1]; first compound 0.01581 µM)?
Its relative viability is 0.11.

And the relative viability ([1]; first compound 0.1581 µM)?
The relative viability was 0.118.

And the relative viability ([1]; first compound 0.5 µM)?
The relative viability was 0.117.

What about the relative viability ([2]; first compound 0.05 µM) of the same compound?
Its relative viability is 1.1.

And the relative viability ([2]; first compound 0.5 µM)?
The relative viability was 0.613.

What about the relative viability ([3]; first compound 0.005 µM) of the same compound?
The relative viability was 0.406.

What about the relative viability ([3]; first compound 0.01581 µM) of the same compound?
Its relative viability is 0.405.

What about the relative viability ([3]; first compound 0.05 µM) of the same compound?
Its relative viability is 0.415.

What about the relative viability ([3]; first compound 0.1581 µM) of the same compound?
Its relative viability is 0.464.

And the relative viability ([3]; first compound 0.5 µM)?
The relative viability was 0.4.

And the relative viability ([4]; first compound 0.005 µM)?
Its relative viability is 0.574.

What about the relative viability ([4]; first compound 0.01581 µM) of the same compound?
Its relative viability is 0.535.

And the relative viability ([4]; first compound 0.05 µM)?
The relative viability was 0.607.

And the relative viability ([4]; first compound 0.1581 µM)?
Its relative viability is 0.631.

What about the relative viability ([4]; first compound 0.5 µM) of the same compound?
The relative viability was 0.669.

And the relative viability ([5]; first compound 0.005 µM)?
Its relative viability is 0.408.

What about the relative viability ([5]; first compound 0.01581 µM) of the same compound?
Its relative viability is 0.407.

And the relative viability ([5]; first compound 0.05 µM)?
The relative viability was 0.357.

What about the relative viability ([5]; first compound 0.1581 µM) of the same compound?
The relative viability was 0.46.

And the relative viability ([5]; first compound 0.5 µM)?
The relative viability was 0.386.

And the relative viability ([6]; first compound 0.005 µM)?
The relative viability was 0.609.

What about the relative viability ([6]; first compound 0.01581 µM) of the same compound?
The relative viability was 0.506.

What about the relative viability ([6]; first compound 0.1581 µM) of the same compound?
Its relative viability is 0.459.

What about the relative viability ([6]; first compound 0.5 µM) of the same compound?
The relative viability was 0.575.

For Oc1nc(-c2ccc(C(F)(F)F)cc2)nc2c1CSCC2 [XAV939] + COc1cccc2cc(-c3nc([C@H]4CC[C@H](C(=O)O)CC4)n4ncnc(N)c34)[nH]c12 [OSI-027] (partner 0.5 µM), which relative viability ([1]; first compound 0.08 µM) is on record?
The relative viability was 0.962.

What about the relative viability ([1]; first compound 0.253 µM) of the same compound?
The relative viability was 0.666.

And the relative viability ([1]; first compound 0.8 µM)?
Its relative viability is 1.03.

And the relative viability ([1]; first compound 2.53 µM)?
Its relative viability is 0.767.

And the relative viability ([2]; first compound 0.08 µM)?
The relative viability was 0.611.

And the relative viability ([2]; first compound 0.253 µM)?
Its relative viability is 0.533.

And the relative viability ([2]; first compound 0.8 µM)?
The relative viability was 0.476.

And the relative viability ([2]; first compound 2.53 µM)?
Its relative viability is 0.726.

And the relative viability ([3]; first compound 0.08 µM)?
The relative viability was 0.364.

What about the relative viability ([3]; first compound 0.253 µM) of the same compound?
Its relative viability is 0.386.

And the relative viability ([3]; first compound 0.8 µM)?
Its relative viability is 0.318.

And the relative viability ([3]; first compound 2.53 µM)?
Its relative viability is 0.4.

And the relative viability ([4]; first compound 0.08 µM)?
Its relative viability is 0.564.

And the relative viability ([4]; first compound 0.253 µM)?
The relative viability was 0.696.

And the relative viability ([4]; first compound 0.8 µM)?
The relative viability was 0.68.

What about the relative viability ([4]; first compound 2.53 µM) of the same compound?
The relative viability was 0.643.

And the relative viability ([5]; first compound 0.08 µM)?
Its relative viability is 1.03.

And the relative viability ([5]; first compound 0.253 µM)?
Its relative viability is 0.877.

What about the relative viability ([5]; first compound 0.8 µM) of the same compound?
The relative viability was 0.89.

And the relative viability ([5]; first compound 2.53 µM)?
Its relative viability is 0.783.

And the relative viability ([6]; first compound 0.08 µM)?
Its relative viability is 0.273.

And the relative viability ([6]; first compound 0.8 µM)?
Its relative viability is 0.236.

And the relative viability ([6]; first compound 2.53 µM)?
The relative viability was 0.225.

For Oc1nc(-c2ccc(C(F)(F)F)cc2)nc2c1CSCC2 [XAV939] + Cc1cc(Nc2cc(N3CCN(C)CC3)nc(Sc3ccc(NC(=O)C4CC4)cc3)n2)n[nH]1 [Tozasertib] (partner 0.1 µM), which relative viability ([1]; first compound 0.08 µM) is on record?
The relative viability was 0.163.

And the relative viability ([1]; first compound 0.253 µM)?
The relative viability was 0.0951.

What about the relative viability ([1]; first compound 0.8 µM) of the same compound?
Its relative viability is 0.116.

What about the relative viability ([1]; first compound 2.53 µM) of the same compound?
The relative viability was 0.0569.

And the relative viability ([2]; first compound 0.08 µM)?
The relative viability was 1.46.

And the relative viability ([2]; first compound 0.253 µM)?
Its relative viability is 0.799.

And the relative viability ([2]; first compound 0.8 µM)?
The relative viability was 0.996.

And the relative viability ([2]; first compound 2.53 µM)?
Its relative viability is 0.789.

And the relative viability ([3]; first compound 0.08 µM)?
The relative viability was 0.403.

And the relative viability ([3]; first compound 0.253 µM)?
The relative viability was 0.414.

And the relative viability ([3]; first compound 0.8 µM)?
The relative viability was 0.386.

What about the relative viability ([3]; first compound 2.53 µM) of the same compound?
The relative viability was 0.373.

What about the relative viability ([4]; first compound 0.08 µM) of the same compound?
The relative viability was 0.6.

And the relative viability ([4]; first compound 0.253 µM)?
Its relative viability is 0.529.

What about the relative viability ([4]; first compound 0.8 µM) of the same compound?
The relative viability was 0.568.

What about the relative viability ([4]; first compound 2.53 µM) of the same compound?
Its relative viability is 0.638.

What about the relative viability ([5]; first compound 0.08 µM) of the same compound?
Its relative viability is 0.419.

What about the relative viability ([5]; first compound 0.253 µM) of the same compound?
The relative viability was 0.335.

And the relative viability ([5]; first compound 0.8 µM)?
Its relative viability is 0.443.

And the relative viability ([5]; first compound 2.53 µM)?
The relative viability was 0.414.

What about the relative viability ([6]; first compound 0.08 µM) of the same compound?
Its relative viability is 0.664.

What about the relative viability ([6]; first compound 0.8 µM) of the same compound?
Its relative viability is 0.453.

And the relative viability ([6]; first compound 2.53 µM)?
The relative viability was 0.275.

From the supplement of paper PMC10307832
